Results published in article PMC8343220, “The selectivity of α‐adrenoceptor agonists for the human α1A, α1B, and α1D‐adrenoceptors” (Pharmacology Research & Perspectives, 2021).

Assays:
human α1A‐adrenoceptor [1] = biological target: T1, human α1A‐adrenoceptor (Homo sapiens, UniProt P35348); assay: ^3H‐prazosin whole‐cell radioligand binding, CHO‐α1A cells
T1 construct: expressed in transfected cells; host or cells: CHO-K1
T1 sequence (P35348 1-466): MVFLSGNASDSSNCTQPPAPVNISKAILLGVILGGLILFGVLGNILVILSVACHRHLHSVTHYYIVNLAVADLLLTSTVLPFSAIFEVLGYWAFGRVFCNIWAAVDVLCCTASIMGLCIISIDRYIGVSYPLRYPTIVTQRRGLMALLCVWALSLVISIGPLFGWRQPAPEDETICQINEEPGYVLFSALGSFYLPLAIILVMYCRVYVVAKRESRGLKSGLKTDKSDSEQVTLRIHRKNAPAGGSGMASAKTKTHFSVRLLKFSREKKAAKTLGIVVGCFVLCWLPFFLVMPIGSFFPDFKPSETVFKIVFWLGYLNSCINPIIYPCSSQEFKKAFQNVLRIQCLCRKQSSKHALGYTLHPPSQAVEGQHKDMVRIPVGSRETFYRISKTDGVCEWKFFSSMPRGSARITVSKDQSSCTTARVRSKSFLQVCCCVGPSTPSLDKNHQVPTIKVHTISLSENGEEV

human α1B‐adrenoceptor [2] = biological target: T2, human α1B‐adrenoceptor (Homo sapiens, UniProt P35368); assay: ^3H‐prazosin whole‐cell radioligand binding, CHO‐α1B cells; conditions: CHO‐α1B cells
T2 construct: expressed in transfected cells; host or cells: CHO-K1
T2 sequence (P35368 1-520): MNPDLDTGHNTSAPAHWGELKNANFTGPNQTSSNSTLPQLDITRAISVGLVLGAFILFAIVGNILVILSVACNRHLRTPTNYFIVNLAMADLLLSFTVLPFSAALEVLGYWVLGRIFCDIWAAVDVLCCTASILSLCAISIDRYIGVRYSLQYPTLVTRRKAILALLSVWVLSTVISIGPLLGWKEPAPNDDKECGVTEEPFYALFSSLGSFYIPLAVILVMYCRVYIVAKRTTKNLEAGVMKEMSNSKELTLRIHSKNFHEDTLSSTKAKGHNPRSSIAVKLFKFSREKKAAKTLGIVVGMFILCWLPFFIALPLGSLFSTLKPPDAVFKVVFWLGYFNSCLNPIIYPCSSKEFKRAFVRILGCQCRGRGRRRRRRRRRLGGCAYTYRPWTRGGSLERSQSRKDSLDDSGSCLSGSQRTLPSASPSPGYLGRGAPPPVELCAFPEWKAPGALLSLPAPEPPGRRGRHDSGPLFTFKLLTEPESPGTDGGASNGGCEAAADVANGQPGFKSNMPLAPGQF

human α1B‐adrenoceptor [3] = biological target: T2, human α1B‐adrenoceptor; assay: Intracellular free calcium mobilization, CHO‐α1B cells; type: cell-based; conditions: CHO‐α1B cells
[4] = biological target: T3, human α1D‐adrenoceptor (full length) (Homo sapiens, UniProt P25100); assay: ^3H‐prazosin whole‐cell radioligand binding, CHO‐α1D cells; conditions: for Kd: CHO‐α1D cells
T3 construct: human α1D‐adrenoceptor (full length) were used; expressed in transfected cells; host or cells: CHO-K1
T3 sequence (P25100 1-572): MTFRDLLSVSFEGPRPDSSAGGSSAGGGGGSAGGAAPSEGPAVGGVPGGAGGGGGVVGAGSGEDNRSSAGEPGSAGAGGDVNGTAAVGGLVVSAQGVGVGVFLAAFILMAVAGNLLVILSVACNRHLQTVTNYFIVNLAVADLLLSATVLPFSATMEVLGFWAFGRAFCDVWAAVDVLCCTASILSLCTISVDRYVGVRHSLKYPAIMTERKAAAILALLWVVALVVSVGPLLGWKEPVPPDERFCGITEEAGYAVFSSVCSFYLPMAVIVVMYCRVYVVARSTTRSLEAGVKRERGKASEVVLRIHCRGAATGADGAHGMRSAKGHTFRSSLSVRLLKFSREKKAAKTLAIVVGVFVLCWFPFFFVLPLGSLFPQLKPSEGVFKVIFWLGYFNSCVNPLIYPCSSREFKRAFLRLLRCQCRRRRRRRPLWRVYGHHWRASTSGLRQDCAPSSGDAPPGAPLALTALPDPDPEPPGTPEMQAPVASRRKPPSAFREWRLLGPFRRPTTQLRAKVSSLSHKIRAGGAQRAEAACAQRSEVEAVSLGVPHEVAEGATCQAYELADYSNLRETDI

[5] = tested on: parental CHO cell line without any transfected receptors; assay: ERK1/2‐phosphorylation, parent CHO cells without transfected receptors; type: cell-based, Chinese hamster; conditions: Cricetulus griseus, CHO; read-out: ERK1/2-phosphorylation % PDBu at 100μM
[6] = biological target: T3, human α1D‐adrenoceptor (full length); assay: ^3H‐cAMP accumulation, CHO‐α1D cells; type: cell-based; conditions: cAMP accumulation without forskolin
[7] = biological target: T3, human α1D‐adrenoceptor (full length); assay: ERK1/2‐phosphorylation (Surefire Alphascreen), CHO‐α1D cells; type: cell-based; conditions: CHO‐α1D cells
human α1B‐adrenoceptor [8] = biological target: T2, human α1B‐adrenoceptor; assay: ERK1/2‐phosphorylation (Surefire Alphascreen), CHO‐α1B cells; type: cell-based; conditions: CHO‐α1B cells, for bi‐phasic responses the initial stimulatory part
human α1A‐adrenoceptor [9] = biological target: T1, human α1A‐adrenoceptor; assay: ERK1/2‐phosphorylation (Surefire Alphascreen), CHO‐α1A cells; type: cell-based; conditions: CHO‐α1A cells, ^a bi‐phasic: initial stimulatory part
[10] = biological target: T3, human α1D‐adrenoceptor (full length); assay: ^3H‐cAMP accumulation in the presence of 10 μM forskolin, CHO‐α1D cells; type: cell-based; conditions: CHO‐α1D cells
human α1A‐adrenoceptor [11] = biological target: T1, human α1A‐adrenoceptor; assay: Intracellular free calcium mobilization, CHO‐α1A cells; type: cell-based; conditions: CHO‐α1A cells
[12] = biological target: T3, human α1D‐adrenoceptor (full length); assay: Intracellular free calcium mobilization, CHO‐α1D cells; type: cell-based; conditions: CHO‐α1D cells
[13] = maximal response as % of 10 µM ionomycin

**Q.** How did the Kd (human α1A‐adrenoceptor [1]; CHO‐α1A cells, given as log KD (negative), mean ± SEM) turn out when `COc1nc(C)nc(Cl)c1N=C1NCCN1` [Moxonidine] was run?
**A.** 28.8 µM

**Q.** What about the “Affinity selectivity ratio α1A vs α1B” value (human α1A‐adrenoceptor [1]; higher affinity for α1A than α1B) of the same molecule?
**A.** 11.7 fold

**Q.** And the “Affinity selectivity ratio α1A vs α1D” value (human α1A‐adrenoceptor [1]; higher affinity for α1A than α1D)?
**A.** 3.8 fold

**Q.** And the Kd (human α1B‐adrenoceptor [2]; given as log KD (negative), mean ± SEM)?
**A.** 339 µM

**Q.** What about the Kd (human α1B‐adrenoceptor [2]; Log KD, ^3H‐prazosin binding, whole‐cell binding (from Table 1), given as log KD (negative numbers)) of the same molecule?
**A.** 339 µM

**Q.** What about the EC50 (human α1B‐adrenoceptor [3]; given as log EC50 (negative numbers), read-out: Intracellular calcium release Log EC50 (converted)) of the same molecule?
**A.** 0.324 µM

**Q.** What about the “Log efficacy ratio KD /EC50” value (human α1B‐adrenoceptor [3]; intrinsic efficacy ratio, KD from binding / EC50 calcium, log) of the same molecule?
**A.** 3.02

**Q.** And the “Intracellular calcium release % ionomycin” value (human α1B‐adrenoceptor [3]; maximal response as % of 10 µM ionomycin response)?
**A.** 57.9 ± 2.1%

**Q.** What about the Kd ([4]; 3H‐prazosin binding Log KD, whole‐cell binding (from Table 1), log values given negative) of the same molecule?
**A.** 110 µM

**Q.** And the Kd ([4]; given as log KD (negative), mean ± SEM, 'early plateau' = specific binding not fully inhibited)?
**A.** 110 µM

**Q.** What about the “Affinity selectivity ratio α1B vs α1D” value ([4]; higher affinity for α1D than α1B) of the same molecule?
**A.** 3.1 fold

**Q.** What about the Emax at 100 µM [5] of the same molecule?
**A.** 3.1 ± 1.9%

**Q.** And the “cAMP Log EC50” value [6]?
**A.** No response

**Q.** And the EC50 ([7]; log values given negative, read-out: ERK1/2‐phosphorylation Log EC50 (converted))?
**A.** 14.8 µM

**Q.** What about the “ERK1/2‐phosphorylation % PDBu” value ([7]; maximal response as % of PDBu) of the same molecule?
**A.** 16.4 ± 1.6%

**Q.** And the EC50 (human α1B‐adrenoceptor [8]; read-out: ERK1/2‐phosphorylation Log EC50 (converted))?
**A.** 0.912 µM

**Q.** What about the “ERK1/2‐phosphorylation % PDBu” value (human α1B‐adrenoceptor [8]; maximal response as % PDBu response) of the same molecule?
**A.** 102.0 ± 6.5%

**Q.** And the EC50 (human α1A‐adrenoceptor [9]; 2–4 min, ^b also active in parent CHO cells, read-out: ERK1/2‐phosphorylation Log EC50 (converted))?
**A.** 0.141 µM

**Q.** And the “ERK1/2‐phosphorylation % PDBu” value (human α1A‐adrenoceptor [9]; % of 10 µM PDBu)?
**A.** 78.0 ± 7.2%

**Q.** And the “cAMP (in presence of forskolin) Fold increase” value ([10]; fold increase of the forskolin response)?
**A.** No response

**Q.** And the “cAMP (in presence of forskolin) Log EC50” value ([10]; in presence of forskolin, log values given negative)?
**A.** No response

**Q.** And the “Log efficacy ratio KD /EC50” value (human α1A‐adrenoceptor [11]; binding KD and calcium EC50)?
**A.** 1.97

**Q.** What about the EC50 (human α1A‐adrenoceptor [11]; given as log EC50 (negative), read-out: Intracellular calcium release Log EC50 (converted)) of the same molecule?
**A.** 0.309 µM

**Q.** And the “Intracellular calcium release % ionomycin” value (human α1A‐adrenoceptor [11]; [13])?
**A.** 59.3 ± 4.5%

**Q.** And the “Log efficacy ratio KD /EC50” value ([12]; intrinsic efficacy ratio, binding KD / calcium EC50)?
**A.** 1.25

**Q.** What about the EC50 ([12]; log values given negative, read-out: Intracellular calcium release Log EC50 (converted)) of the same molecule?
**A.** 6.17 µM

**Q.** What about the “Intracellular calcium release % ionomycin” value [12, 13] of the same molecule?
**A.** 16.6 ± 2.9%
